According to patent US20260151517A1, “SOMATOSTATIN RECEPTOR-TARGETING RADIOPHARMACEUTICALS AND USES THEREOF” (Nuclidium AG, priority 2024, published 2026):
*1 amine or outer side, *2 acyl side, *3 side chain or, on linkers, in order; H or OH if unused. Where a SMILES comes first, the peptide text is derived from it. Bridges are numbered along the chain shown (N, C = ends). [ ]: non-standard residue; d: D form. The star is where a group is joined. NODAGA = O=C(O)CN1CCN(CC(=O)O)CCN(C(CCC(=O)*)C(=O)O)CC1; X1 = NC(=O)Nc1ccc(CC(N[*:1])C(=O)[*:2])cc1; Phe(4-Cl) = N[CH](Cc1ccc(Cl)cc1)C(=O)O

Key:
[1] = in vivo; design: species or system mice; settings: athymic nude Foxn1^nu, mouse, iv, 13 MBq, total radioactivity
Protocol: Dynamic PET scans were acquired for 1 hour post-injection of the investigated radiopharmaceutical. The mice were euthanized using carbon dioxide at 4 hours post-injection, the bladder was mechanically emptied, and static PET scans were acquired for 30 min. PET images were obtained using the β-CUBE PET scanner system (MOLECUBES) and were decay corrected and reconstructed with the VivoQuant software version 4.0. Tomograms and helical CT scans of the whole mouse were first acquired using a NanoSPECT/CTTM scanner (Bioscan Inc.). CT images were reconstructed using CTReco (version r1.146), resulting in a pixel size of 0.2 mm. InVivoScope (version 1.43, Bioscan Inc.) software was used to generate the maximum intensity projection (MIP) of the co-registered PET/CT images presented in FIG. 10.

[2] = system: HEK-SST2 xenograft mice; settings: athymic nude Foxn1^nu, mouse, in vivo, 4 h
Protocol: Unless otherwise specified, the in vivo studies were performed on athymic nude Foxn1^nu 4-6 weeks-old mice. Animals were injected in the shoulder with HEK-SST2 cells (10^7 cells/200 μL) suspended in PBS. The in vivo experiments were performed when tumors reached a volume between 100-500 mm. At the intervention, all mice were between 7 and 11 weeks old.
The specificity study was performed parallel to pharmacokinetics studies. For this reason, NODAGA-LM3 was radiolabeled with ^64Cu.
The specificity of [^64Cu]Cu-NODAGA-LM3 for SSTR2-expressing tissues was evaluated in HEK-SST2 xenograft mice through a blocking study. The mice were administered with 0.15 MBq of [^64Cu]Cu-NODAGA-LM3 co-injected with a 2000-fold excess of DOTA-LM3 as a blocking agent. The mice were sacrificed 4 hours post-injection, and the organs were collected. weighed, and counted in a gamma counter.

CC(O)C1NC(=O)C(CCCCN)NC(=O)C(Cc2ccc(NC(N)=O)cc2)NC(=O)C(Cc2ccc(O)cc2)NC(=O)C(NC(=O)C(Cc2ccc(Cl)cc2)NC(=O)CCC(C(=O)O)N2CCN(CC(=O)O)CCN(CC(=O)O)CC2)CSSCC(C(=O)NC(Cc2ccc(O)cc2)C(N)=O)NC1=O (centres unmarked) [[^61Cu]Cu-NODAGA-LM3, metal not drawn] ({NODAGA}-[Phe(4-Cl)]CY[X1]KTCY-NH2; disulfide 2-7; configuration not given here)
tissue to tissue ratio [1]: 4 | Uptake Blood [2]: 0.10 ± 0.02 % IA/g | Uptake Heart [2]: 0.20 ± 0.01 % IA/g | Uptake Liver [2]: 0.90 ± 0.20 % IA/g | Uptake Muscle [2]: 0.02 ± 0.01 % IA/g
